According to patent US20210122771A1, “NEW MOLECULAR TWEEZERS AGAINST NEUROLOGICAL DISORDERS AND VIRAL INFECTIONS” (The Regents of the University of California, priority 2018, published 2021):
Where two headings read alike, the source gives them in different places.

Experiments:
[1] = Incubation with mouse liver microsomes, LC-MS/MS; format: in vitro ADME; settings: incubation 1 h, LC-MS/MS every 15 min
[2] = Incubation with mouse plasma, LC-MS/MS; settings: incubation 1 h, LC-MS/MS every 15 min
[3] = Incubation with simulated gastric fluid, LC-MS/MS; settings: incubation 1 h, LC-MS/MS every 15 min
[4] = tested on: differentiated rat pheochromocytoma (PC-12) cells; test: Self-toxicity in differentiated PC-12 cells (MTT and/or LDH); settings: MTT and/or LDH assays, highest concentration tested 100 μM
Experimental: (§1) The highest concentration tested was 100 μM. Non-toxic compounds then were tested for their ability to inhibit the toxicity of 10 μM Aβ42 in the same assay. The parent compound 1 was used as a control in both cases.

[5] = tested on: Aβ42-induced toxicity; test: Inhibition of Aβ42 toxicity in differentiated PC-12 cells (MTT/LDH); format: cell-based, rat
Experimental: as §1

[6] = PK screening in mice, three routes, two time points; settings: for Blood Concentration, 40 min / Brain Concentration, 40 min / Blood Concentration, 4 h / Brain Concentration, 4 h: analyte: administered compound for 13 and 14, compound 1 in all other cases; for Bioavailability, 40 min / Bioavailability, 4 h: percent ratio of the I.V. blood concentration; for bioavailability at 40 min / bioavailability at 4 h / Kp at 40 min / Kp at 4 h: male, mouse, in vivo
Experimental: Each compound was administered to the mice at 2 mg/kg intravenously (I.V.), 2 mg/kg subcutaneously (S.C.), or 10 mg/kg orally (P.O.).

[7] = Full 24-h PK profile; format: in vivo, mice; parameters: Brain AUC: unit not given here; settings: for LogBB / Blood T1/2 / Brain AUC / Brain T1/2 / Blood AUC / Blood Bioavailability / AUC / half-life / bioavailability: 24-h profile; for Blood T1/2 / Brain AUC / Brain T1/2 / Blood AUC / AUC / half-life: 7 time points; for Blood AUC: in ng·h/mL; for AUC / half-life / bioavailability: mouse, in vivo; for AUC: read-out: Blood AUC; for bioavailability: read-out: Blood Bioavailability
Experimental: Based on the 2-time-point screen results, a full 24-h PK profile has been obtained for compounds 13 and 14. In these experiments, the blood and brain levels were measured at 7 time points—0.3, 0.6, 1, 2, 4, 8, and 24 h. Data for 1 are given for reference.

[8] = biological target: KAA; format: binding; settings: fluorometric titration in aqueous buffer at neutral pH; read-out: Dissociation constant Kd, KAA
[9] = biological target: RGD; format: binding; settings: fluorometric titration in aqueous buffer at neutral pH; read-out: Dissociation constant Kd, RGD
[10] = CellTiter-Glo cell viability assay on Vero E6 cells; format: cell-based; settings: African green monkey, CellTiter-Glo (ATP)
Experimental: (§2) FIG. 1, panels A and B, illustrates the results of a cell viability assay with the new molecular tweezers. Indicated concentrations of compounds were added to the cells and incubated for 2 days before […]-GLO® assay (Promega) was performed on TZM-bl cells (HIV-1 target cells) (panel A), or on Vero E6 (ZIKV target cells) (panel B). The experiment was performed in triplicates, raw data were normalized to untreated cells. Data represent mean±SD (n=3).
(§3) To determine the maximally tolerated concentrations of these derivatives in cell culture and to exclude cytotoxic effects in viral infectivity assays, a CellTiter-Glo® assay (Promega) was performed. This assay quantifies the amount of intracellular ATP. The compounds were directly added to TZM-bl cells (a HeLa derived HIV-1 reporter cell line TZM-bl; 20,000 cells/well, FIG. 1, panel A) or Vero E6 cells (a Zika virus (=ZIKV) permissive cell line; 12,000 cells/well, FIG. 1, panel B). Cell viability was quantified two days later by measuring ATP levels.

[11] = CellTiter-Glo cell viability assay on TZM-bl cells; format: cell-based; settings: human, CellTiter-Glo (ATP)
Experimental: as §2, §3

[12] = tested on: ZIKV strain MR766; test: ZIKV infectivity (MTT) assay on Vero E6 cells; format: cell-based, Zika virus
Experimental: FIG. 2, panels A and B, illustrates the results of a ZIKV infectivity (MTT) assay with the new molecular tweezers on Vero E6 cells. […] After 3-4 days, the ZIKV induced cytopathic effect was quantified using the MTT assay.
20-μl of MTT solution (5 mg/ml in PBS) were added to 200 μl cells. Following a 3-h incubation at 37° C., cell-free supernatants were discarded and formazan crystals were dissolved in 100 μl of a 1:2 mixture of dimethyl sulfoxide and ethanol. Absorption was measured at 490 nm and baseline corrected at 650 nm using a VMax Kinetic ELISA microplate reader (Molecular Devices). To determine infection rates, sample values were subtracted from untreated control set to 100%. Error bars are standard deviations of replicates (FIG. 2, panels A and B). […] The selectivity index (SI) (Table 12) is calculated for each compound by dividing its CC50 value by the IC50 value.

[13] = tested on: CCR5-tropic HIV-1 strain; test: HIV-1 infectivity assay on TZM-bl cells; format: cell-based
Experimental: FIG. 3, panels A and B, illustrates the results of an HIV-1 infectivity assay with new tweezers on TZM-bl cells. CR5-tropic HIV-1 strain (20 ng/ml p24 antigen) was incubated for 10 min at 37° C. with indicated concentrations of the different compounds before these mixtures were used to infect TZM-bl cells. Three days later, infection rates were determined by measuring β-galactosidase activity.
Infection rates were determined 3 days post infection by detecting β-galactosidase activity in cellular lysates using the Tropix Gal-Screen kit (Applied Biosystems) and an Orion microplate luminometer (Berthold). Values represent % infection (mean) compared to buffer control (FIG. 3, panels A and B). […] Half-maximal inhibitory concentrations (IC50 values), were calculated. […] The selectivity index (SI) is calculated for each compound by dividing its CC50 value by its IC50 value (Table 12).

[14] = tested on: enveloped viruses such as HIV-1 and HSV-2; settings: cited from earlier work
[15] = CC50 value divided by IC50 value

## O=C(O)Cc1ccccc1Nc1c(Cl)cccc1Cl [diclofenac]
[1]
  hydrolysis in mouse liver microsomes: hydrolyzed quantitatively
[2]
  hydrolysis in mouse plasma: hydrolyzed quantitatively
[3]
  hydrolysis in simulated gastric fluid: hydrolyzed quantitatively

## O=P([O-])(O)Oc1c2c(c(O)c3c1C1CC3c3cc4c(cc31)C1CC4c3ccccc31)C1CC2c2cc3c(cc21)C1CC3c2ccccc21.[Na+] [Compound 13]
[4]
  Self-toxicity: Non-toxic
[5]; 10 μM Aβ42, differentiated PC-12 cells
  protective effect against Aβ42-induced toxicity compared to 1: higher protective effect
[5]; 10 μM Aβ42, differentiated PC-12 cells, LDH assay, read-out: Inhibition of Aβ42 toxicity, IC50 (LDH)
  IC50: 16 µM
[6]; mice, 2 mg/kg I.V., 40 min
  Blood Concentration, 40 min: 55 ng/mL
  Brain Concentration, 40 min: 3.58 ng/g
[6]; mice, 2 mg/kg I.V., 40 min, percent ratio between brain and blood concentration
  BBB penetration, 40 min: 6.5%
[6]; mice, 2 mg/kg I.V.
  Blood Concentration, 4 h: 53 ng/mL
  Brain Concentration, 4 h: 1.28 ng/g
[6]; mice, 2 mg/kg I.V., percent ratio between brain and blood concentration
  BBB penetration, 4 h: 2.4%
[6]; mice, 2 mg/kg S.C., 40 min
  Blood Concentration, 40 min: 98 ng/mL
  Brain Concentration, 40 min: 1.19 ng/g
  Bioavailability, 40 min: 178.2%
[6]; mice, 2 mg/kg S.C., 40 min, percent ratio between brain and blood concentration
  BBB penetration, 40 min: 1.2%
[6]; mice, 2 mg/kg S.C.
  Blood Concentration, 4 h: 50 ng/mL
  Brain Concentration, 4 h: 1.69 ng/g
  Bioavailability, 4 h: 94.3%
[6]; mice, 2 mg/kg S.C., percent ratio between brain and blood concentration
  BBB penetration, 4 h: 3.4%
[6]; mice, 10 mg/kg P.O., 40 min
  Blood Concentration, 40 min: 0.0 ng/mL
  Brain Concentration, 40 min: 1.79 ng/g
  Bioavailability, 40 min: 0.0%
[6]; mice, 10 mg/kg P.O., 40 min, percent ratio between brain and blood concentration
  BBB penetration, 40 mm: 0.0%
[6]; mice, 10 mg/kg P.O.
  Blood Concentration, 4 h: 0.3 ng/mL
  Brain Concentration, 4 h: 0.26 ng/g
  Bioavailability, 4 h: 0.5%
[6]; mice, 10 mg/kg P.O., percent ratio between brain and blood concentration
  BBB penetration, 4 h: 100%
[7]; I.V.
  LogBB: −2.06
  Blood T1/2: 1.2 h
  Brain AUC: 3.71
  Brain T1/2: 1.5 h
  Blood AUC: 423
[7]; P.O.
  Blood Bioavailability: 21.6%
  LogBB: −1.84
  Blood T1/2: 16 h
  Brain AUC: 1.33
  Brain T1/2: 3.1 h
  Blood AUC: 91.2
[7]; S.C.
  Blood Bioavailability: 246.7%
  LogBB: 3.31
  Blood T1/2: 11.1 h
  Brain T1/2: 1.1 h
  Blood AUC: 1043
[7]; full 24-h PK profile
  BBB penetration relative to compound 1: improved

## O=P(O)(O)Oc1c2c(c(OP(=O)(O)O)c3c1C1CC3c3cc4c(cc31)C1CC4c3ccccc31)C1CC2c2cc3c(cc21)C1CC3c2ccccc21 [Compound 1, CLR01, reference compound]
[8]
  Kd: 30 µM
[9]
  Kd: 86 µM
[4]
  Self-toxicity: Non-toxic
[5]; Rattus norvegicus, PC-12, read-out: Inhibition of Aβ42 toxicity, IC50 (MTT)
  IC50: 69 µM
[6]; 2 mg/kg
  bioavailability at 40 min: 101%
  bioavailability at 4 h: 86.6%
[6]; 10 mg/kg
  bioavailability at 40 min: 0.5%
  bioavailability at 4 h: 0%
[6]; iv, 2 mg/kg
  Kp at 40 min: 0
  Kp at 4 h: 0.002
[6]; po, 10 mg/kg
  Kp at 40 min: 0
  Kp at 4 h: 0
[6]; sc, 2 mg/kg
  Kp at 40 min: 0
  Kp at 4 h: 0
[7]; I.V.
  LogBB: −3.62
  Brain AUC: 1.63
[7]; P.O.
  Brain AUC: 0
[7]; S.C.
  LogBB: 0.34
[7]; iv, I.V.
  AUC: 6800 ng·h/mL
[7]; iv, I.V., read-out: Blood T1/2 (converted)
  half-life: 1.8 h
[7]; iv, I.V., read-out: Brain T1/2 (converted)
  half-life: 4 h
[7]; po, P.O.
  AUC: 8.94 ng·h/mL
  bioavailability: 0.1%
[7]; po, P.O., read-out: Blood T1/2 (converted)
  half-life: 1.3 h
[7]; sc, S.C.
  AUC: 4740 ng·h/mL
  bioavailability: 69.7%
[7]; sc, S.C., read-out: Blood T1/2 (converted)
  half-life: 1.05 h
[7]; sc, S.C., read-out: Brain T1/2 (converted)
  half-life: 0.9 h
[10]
  CC50 at 2 days: 584 µM
[11]
  CC50 at 2 days: 964 µM
[12]; [15]
  SI (Vero E6/ZIKV): 13
[12]; Zika virus, Vero C1008, read-out: IC50 ZIKV
  IC50: 46 µM
[13]; [15]
  SI (TZM-bl/HIV-1): 26
[13]; Human immunodeficiency virus 1, TZM-bl, read-out: IC50 HIV-1
  IC50: 37 µM
[14]; Lump et al. (2015) eLife, 4: e05397
  concentrations required to inhibit enveloped viruses such as HIV-1 and HSV-2: median micromolar range
[14]; Rocker et al. (2018) Antiviral Res. 152: 26-35
  antiviral activity in the presence of serum: inhibited
